{"source": "patent US4450166A", "about": "“N-(4,5-Dihydro-thiazol-2-yl)-3-quinoline-carboxamides having anxiolytic activity” (Roussel Uclaf, priority 1981, dated 1984)", "key": {"[1]": {"conditions": "derivative of French Pat. No. 2,340,735; cited from earlier work"}, "[2]": {"conditions": "derivative of French Pat. No. 2,340,735; cited from earlier work", "remark": "listed apart in the source"}, "[3]": {"system": "plasmatic corticosterone level", "assay": "Action against stress caused by noise by plasmatic corticosterone level", "type": "in vivo", "conditions": "Rattus norvegicus; oral; groups of 5 rats fasted 24 hours; noise stress one hour later; read-out: DE50 (oral dose which reduced by 50% the level of corticosterone)", "description": "The test was effected on groups of 5 rats fasted for 24 hours receiving orally the test compound between 8 and 9 in the morning. One hour later, stress was applied to the animals by placing them in a cage with a noisily operated radio adjacent thereto. 30 minutes later, they received an intraperitonal prick and 10 minutes later, the animals were anesthesized with halothane. 3 ml blood samples were taken after decapitation and the seric levels of corticosterone were determined by a radio-immunological method. Counts were taken of the importance in the male rat of seric concentrations of corticosterone to determine directly without previous extraction of the hormone with 0.1 ml of the sample diluted to 1 to 100. To the test sample were added in hemolysis tubes (12×65 mm) 0.1 ml of an aqueous solution of ^3 H-- corticosterone (5000 spm) and 0.5 ml of buffered phosphate solution (0.02 M; pH of 6.9) containing 0.02% of gelatine and 0.02% of sodium nitride containing a suspension of anticorticosterone antiserum (dilution 1/300,000), sheep antiserum anti γ-globuline of rabbit (dilution of 1/50) and normal serum of rabbit treated with Dextran carbon (dilution 1/500).\nThe volume was adjusted to 1 ml and the mixture was incubated overnight at 4° C. The mixture was centrifuged at 3000 t/mn for 20 minutes and the surnageant was discarded. The radioactivity contained in the precipitate was measured by a counter after addition of 2 ml of scintillation liquid containing 5% of Soluene 350. The concentration of corticosterone was determined with a standard curve (0-4000 pg) established under the treatment conditions of the samples. The individual seric level of corticosterone expressed in μg/100 ml was determined as the average of 3 tests and the results were compared by the Student test to those obtained in control animals not subjected to stress. The results expressed as DE50 on the oral dose which reduced by 50% the level of corticosterone in the treated animals is reported in Table III."}, "[4]": {"assay": "Anxiolytic activity (electric shock test, Apelab apparatus, Boissier et al)", "type": "in vivo, mice", "conditions": "oral; for ED (maximum): Mus musculus, 0.5 h, 30 minutes before the test, groups of 10 mice, shocks over one minute, read-out: oral dose at which the number of delivered shocks increased to the maximum; for anxiolytic activity (in words): mice", "description": "The Apelab apparatus and protocol used by Boissier et al [European J. Pharmacol., Vol. 4 (1968), p. 145] were used to determine the anxiolytic activity and 4 plates were connected to a stimulator (U. Sachs, Roucaire) which delivered electric shocks of 120 volts for 0.5 seconds. The test was effected on groups of 10 mice who had orally received the test compound 30 minutes before the test. Each animal was individually placed on the apparatus and after 15 seconds of free exploration, it was subjected to an electric shock each time as it passed from plate to another, a minimum of 3 seconds being observed between 2 shocks. The number of delivered shocks was determined over one minute and the obtained results were compared to those observed on control animals by the Dunnett test."}, "[5]": {"target": "receptors for benzodiazepines", "assay": "Affinity for receptors for benzodiazepines (inhibition of specific bonding of ^3 H diazepam)", "type": "binding", "conditions": "^3 H diazepam 10^-9 M, rat cortex, pH of 7.4", "description": "The test was inspired by Mohler et al. [Science, No. 198 (1977), p. 849-851] and one part of the cortex removed from the brains of males rats weighing an average of […] per 20 parts by volume of 0.32 M of sucrose solution was homogenized. After centrifugation at 1000 g of the homogenized mixture at 0° C. for 10 minutes, the surnagent was centrifuged at 30,000 g at 4° C. for 20 minutes and the culot was suspended in 20 volumes of buffered 50 mM. Tris HCl with a pH of 7.4. The suspension was centrifuged at 30,000 g for 20 minutes at 4° C. and the new culot was suspended in 50 ml of buffered Krebs Tris HCl with a pH of 7.4. Following incubation at 0° C. for 30 minutes, 2 ml of the suspension in the presence of ^3 H diazepam at a concentration of 10^-9 M alone and with increasing concentrations of the test product to determine non-specific fixation with non-radioactive diazepam at a concentration of 10^-6 M.\nThe incubated suspension were filtered through a Whatman GF/C filter and the filters were washed twice at 0° C. with 5 ml of buffered krebs. Tris HCl with a pH of 7.4. The radioactivity of the filter was measured by liquid scintillation and the activity of the product was expressed in I.C.50 or the concentration which inhibits by 50% the specific bonding of ^3 H diazepam determined graphically."}, "Acute toxicity": {"assay": "Acute toxicity", "type": "in vivo", "conditions": "oral, mice"}}, "note": "pIC50: −log10 of the molar value. Structures can show the parent of a compound that is named as a salt. Where two headings read alike, the source gives them in different places."}
{"smiles": "O=C(NC1=NCCS1)c1cnc2c(C(F)(F)F)cccc2c1O", "values": [{"measurement": "analgesic activity (in words)", "setting": "[1]", "result": "has analgesic activity"}, {"measurement": "anxiolytic activity (in words)", "setting": "[2]", "result": "devoid of anxiolytic activity"}]}
{"smiles": "Cl.O=C(NC1=NCCS1)c1cnc2ccccc2c1O", "note": "[Example 1, N-(4,5-dihydro-thiazol-2-yl)-4-hydroxy-3-quinoline-carboxamide hydrochloride]", "values": [{"measurement": "ED50", "setting": "[3]", "result": 10, "unit": "mg/kg"}, {"measurement": "ED (maximum)", "setting": "[4]", "result": 10, "unit": "mg/kg"}, {"measurement": "anxiolytic activity (in words)", "setting": "[4]", "result": "good anxoilytic activity"}, {"measurement": "pIC50", "setting": "[5]", "result": 9.30}, {"measurement": "DL0 (maximum dose which did not cause any mortality after 8 days)", "setting": "Acute toxicity", "result": "> 400", "unit": "mg/kg"}]}
{"smiles": "CCc1ccc2ncc(C(=O)NC3=NCCS3)c(O)c2c1.Cl", "note": "[Example 2, N-(4,5-dihydro-thiazol-2-yl)-6-ethyl-4-hydroxy-3-quinoline-carboxamide hydrochloride]", "values": [{"measurement": "ED50", "setting": "[3]", "result": 15, "unit": "mg/kg"}, {"measurement": "ED (maximum)", "setting": "[4]", "result": 20, "unit": "mg/kg"}, {"measurement": "anxiolytic activity (in words)", "setting": "[4]", "result": "good anxoilytic activity"}, {"measurement": "pIC50", "setting": "[5]", "result": 9.52}, {"measurement": "DL0 (maximum dose which did not cause any mortality after 8 days)", "setting": "Acute toxicity", "result": "> 400", "unit": "mg/kg"}]}
{"smiles": "Cc1ccc2ncc(C(=O)NC3=NCCS3)c(O)c2c1", "note": "[Example 3, N-(4,5-dihydro-thiazol-2-yl)-6-methyl-4-hydroxy-3-quinoline-carboxamide hydrochloride]", "values": [{"measurement": "pIC50", "setting": "[5]", "result": 8.82}]}
{"smiles": "CC(C)c1ccc2ncc(C(=O)NC3=NCCS3)c(O)c2c1", "note": "[Example 4, N-(4,5-dihydro-thiazol-2-yl)-6-isopropyl-4-hydroxy-3-quinoline-carboxamidehydrochloride]", "values": [{"measurement": "ED50", "setting": "[3]", "result": 50, "unit": "mg/kg"}, {"measurement": "ED (maximum)", "setting": "[4]", "result": 20, "unit": "mg/kg"}, {"measurement": "anxiolytic activity (in words)", "setting": "[4]", "result": "good anxoilytic activity"}, {"measurement": "pIC50", "setting": "[5]", "result": 8.66}, {"measurement": "DL0 (maximum dose which did not cause any mortality after 8 days)", "setting": "Acute toxicity", "result": "> 1000", "unit": "mg/kg"}]}
{"smiles": "O=C(NC1=NCCS1)c1cnc2cc(Cl)ccc2c1O", "note": "[Example 5, N-(4,5-dihydro-thiazol-2-yl)-7-chloro-4-hydroxy-3-quinoline-carboxamide hydrochloride]", "values": [{"measurement": "pIC50", "setting": "[5]", "result": 9.05}, {"measurement": "DL0 (maximum dose which did not cause any mortality after 8 days)", "setting": "Acute toxicity", "result": "> 1000", "unit": "mg/kg"}]}
{"smiles": "O=C(NC1=NCCS1)c1cnc2ccc(Cl)cc2c1O", "note": "[Example 6, N-(4,5-dihydro-thiazol-2-yl)-6-chloro-4-hydroxy-3-quinoline-carboxamide hydrochloride]", "values": [{"measurement": "ED50", "setting": "[3]", "result": 50, "unit": "mg/kg"}, {"measurement": "ED (maximum)", "setting": "[4]", "result": 50, "unit": "mg/kg"}, {"measurement": "anxiolytic activity (in words)", "setting": "[4]", "result": "good anxoilytic activity"}, {"measurement": "pIC50", "setting": "[5]", "result": 9.00}, {"measurement": "DL0 (maximum dose which did not cause any mortality after 8 days)", "setting": "Acute toxicity", "result": "> 400", "unit": "mg/kg"}]}
{"smiles": "O=C(NC1=NCCS1)c1cnc2ccc(F)cc2c1O", "note": "[Example 7, N-(4,5-dihydro-thiazol-2-yl)-6-fluoro-4-hydroxy-3-quinoline-carboxamide hydrochloride]", "values": [{"measurement": "pIC50", "setting": "[5]", "result": 8.89}]}
{"smiles": "COc1ccc2c(O)c(C(=O)NC3=NCCS3)cnc2c1", "note": "[Example 8, N-(4,5-dihydro-thiazol-2-yl)-7-methoxy-4-hydroxy-3-quinoline-carboxamide hydrochloride]", "values": [{"measurement": "ED (maximum)", "setting": "[4]", "result": 20, "unit": "mg/kg"}, {"measurement": "anxiolytic activity (in words)", "setting": "[4]", "result": "good anxoilytic activity"}, {"measurement": "pIC50", "setting": "[5]", "result": 8.92}, {"measurement": "DL0 (maximum dose which did not cause any mortality after 8 days)", "setting": "Acute toxicity", "result": "> 400", "unit": "mg/kg"}]}
{"smiles": "Cc1nc2ccccc2c(O)c1C(=O)NC1=NCCS1", "note": "[Example 9, N-(4,5-dihydro-thiazol-2-yl)-2-methyl-4-hydroxy-3-quinoline-carboxamide hydrochloride]", "values": [{"measurement": "ED50", "setting": "[3]", "result": 10, "unit": "mg/kg"}, {"measurement": "ED (maximum)", "setting": "[4]", "result": 10, "unit": "mg/kg"}, {"measurement": "anxiolytic activity (in words)", "setting": "[4]", "result": "good anxoilytic activity"}, {"measurement": "pIC50", "setting": "[5]", "result": 8.59}, {"measurement": "DL0 (maximum dose which did not cause any mortality after 8 days)", "setting": "Acute toxicity", "result": "> 1000", "unit": "mg/kg"}]}
